From patent publication US20240076615A1, “MODELS AND METHODS FOR RAPID SCREENING OF THE EFFICACY OF IMMUNOREGULATING DRUGS” (priority 2022, published 2024)

System: tumor cells and immune cells of a patient with ovarian cancer
Test: IO-FIVE capsule tube test in mice, ovarian cancer patient (Example 3), CTG and FACS
Assay type: in vivo, human
Conditions: day 10; tumor sample after addition of autologous TIL cells
From the text: The following was collected for cell identification: a single cell suspension of tumor tissue samples of patients before purification, tumor cells after purification, enriched immune cells (containing CD3+T) eluted from the column, and a cell suspension in which tumor cells after purification and immune cells were mixed in a certain ratio (1.5:1 to 15:1), to yield a final cell count of 0.1 to 0.3 million cells. (Note that if the viability of immune cells eluted from the column was less than 20%, then downstream experiments and operations could not be performed, especially since activated immune cells were more likely to undergo activation-induced apoptosis). […]
According to the data analyzed in step of flow cytometry, the CD45− tumor cells and CD3+ T cells were mixed in a certain ratio (about 1.5:1-15:1). […]
3-21 days after administration (day 10 here), the mice were euthanized, and the PVDF tubes were removed. Cell viability was quantified by the CellTiter-Glo chemiluminescence method, and the relative ratio and basic phenotype of tumor cells and immune cells in PVDF tubes were detected by flow cytometry.
The results were analyzed by Flowjo software.

## NC(=O)c1cccc2cn(-c3ccc([C@@H]4CCCNC4)cc3)nc12 [PARP inhibitor, Niraparib]
  viability of total cells / overall tumor viability (CTG): neither PD1 antibody nor PARP inhibitor mono-therapy could inhibit
